Values of other authors, collected in PMC12084609, “Structural insights into small-molecule agonist recognition and activation of complement receptor C3aR” (The EMBO Journal, 2025).

Tested on: C3aR
Set-up: method as in Mathieu et al, 2005; Rodriguez et al, 2024
Settings: blockade of calcium influx attributed to β-arrestin mediated internalization; ref Mathieu et al, 2005; Rodriguez et al, 2024; cited from earlier work

**Q.** Which “activity at C3aR” value does the source give for NC(N)=NCCC[C@H](NC(=O)COCC(c1ccccc1)c1ccccc1)C(=O)O [SB290157] here?
**A.** potent agonist
